In brackets after ≈: the same amount, converted by molar mass.
Experiments:
Type in all cases: cell-based
[1] = Minimal toxic dose in the plaque reduction assay; conditions: monkey, HSV-Vero cells, read-out: MTD (minimal toxic dose)
Description: (§1) Antiviral activity for each component of BU-4224V was evaluated by the dye uptake and the plaque reduction assay using herpes simplex virus type 1 (KOS strain) infection in Vero cells. In the dye uptake assay, 200 μl of the Vero cell suspension containing 1.6×10^4 cells was poured into each well of 96-well microplates, and then 50 μl of medium containing a test compound at various concentrations was added to each well. The viral suspension (50 μl ) containing approximately 30X TCID50 was inoculated to each well. For cytotoxicity tests, the same set of wells without viruses were prepared. After incubation at 37° C. for 72 hours under the humidified 5% CO2 -95% air environment, the degree of inhibition of the virus-induced cytopathic effect and the drug-induced cytotoxicity were determined by means of the uptake of neutral red. […] Acyclovir was used as a reference compound of anti-HSV activity. The antiviral activity of BU-4224V was also evaluated by the conventional plaque reduction assay method using a 24-well microplate.

[2] = tested on: herpes simplex virus type 1 (KOS strain); assay: Dye uptake assay, HSV-1 infection in Vero cells; conditions: Human alphaherpesvirus 1, HSV-1, Vero cells, 72 hours, read-out: ID50 (the source's name)
Description: as §1

in vitro = conditions: monkey, vero cells
Description: as §1

[3] = tested on: herpes simplex virus type 1 (KOS strain); assay: Plaque reduction assay, HSV-1 infection in Vero cells; conditions: Human alphaherpesvirus 1, HSV-1, Vero cells, read-out: ID50 (the source's name)
Description: as §1

For `Nc1nc2c(ncn2COCCO)c(=O)[nH]1` [Acyclovir], the MCC [1] was > 100 µg/mL, the IC50 [2] was 0.09 µg/mL (≈ 0.4 µM) and the CC50 at 72 h (in vitro) was > 100 µg/mL. For the same molecule, the IC50 [3] was 0.27 µg/mL (≈ 1.2 µM).
